Values quoted from earlier work, collected in US10779561B2, “Resveratrol solubility” (AQUANOVA AG, priority 2016, dated 2020).

Assays:
NFκ-b = settings: in-vitro conditions
rats = settings: several in-vivo studies in rats

Oc1ccc(C=Cc2cc(O)cc(O)c2)cc1 [resveratrol]
effect on nuclear translocation of NFκ-b (NFκ-b): inhibits the nuclear translocation of NFκ-b | neuro-protective effect (rats): neuro-protective effect
